{"source": "patent US20250144179A1", "about": "“PEPTIDE HORMONE TO PREVENT OR TREAT VASOSPASM, BRAIN INJURY OR CEREBRAL EDEMA” (UNIVERSITY OF FLORIDA RESEARCH FOUNDATION, INCORPORATED, priority 2022, published 2025)", "type_in_all_cases": "in vivo, mouse", "key": {"[1]": {"tested_on": "occludin", "test": "Western blot of occludin in brain after SAH", "conditions": "wild-type mice, adropin 450 nmol/kg i.p. vs vehicle", "procedure": "(§1) Synthetic adropin^34-76 peptide was supplied from Bachem (Bubendorf, Switzerland) and diluted in 0.1% BSA in saline. 0.1% BSA in saline was used as vehicle control for all experiments. Adropin (450 nmol/kg) or an equivalent volume of vehicle was delivered via intraperitoneal injection 15 minutes post-SAH. For experiments ending at 24 hours post-SAH, an identical dose of adropin/vehicle was given again 12 hours later. For experiments ending 7 days post-SAH, adropin/vehicle was given again on days 1, 3 & 5 post-SAH. In the aneurysm rupture model, adropin was given at a dose of 450 nmol/kg starting 3 days before aneurysm induction (elastase injection). Adropin was given every other day until sacrifice\n(§2) SAH was modeled using the anterior circulation single autologous blood injection method^25,33 with minor adjustments. Mice were anesthetized with ketamine (100 mg/kg) and xylazine (10 mg/kg) before removing hair from scalp and cleaning with serial betadine—saline washes. The tail was also prepped from the base extending 1 cm distally. Mice were then fixed into a stereotaxic frame and body temperature maintained at 37° C. The scalp was incised along the sagittal suture from bregma to the nasal bone. […]\n(§3) At 24 hours or 7 days post-SAH, mice were deeply anesthetized and perfused with 10 mL of ice-cold PBS. […] Samples were centrifuged, supernatant collected, and protein quantified via Bradford assay. […]"}, "[2]": {"tested_on": "MMP9", "test": "Western blot of MMP9 in brain after SAH", "conditions": "wild-type mice, adropin 450 nmol/kg i.p. vs vehicle", "procedure": "as §1, §2, §3"}, "[3]": {"tested_on": "wild-type mice, SAH model", "test": "Brain water content (cerebral edema) after SAH", "conditions": "24 hours post-SAH, adropin 450 nmol/kg i.p.", "procedure": "as §1\nas §2, with “C.” for “C. The scalp was incised along the sagittal suture from bregma to the nasal bone.”\nBrain water content was measured using the wet weight—dry weight method.^34 Twenty-four hours post-SAH, brains were removed from the skull and the olfactory lobe and hindbrain were removed from the cortex and midbrain. […]"}, "[4]": {"tested_on": "wild-type mice, SAH model", "test": "Delayed cerebral vessel casting, MCA diameter (vasospasm) after SAH", "procedure": "as §1, with “Adropin (450 nmol/kg) or an equivalent volume of vehicle was delivered via intraperitoneal injection 15 minutes post-SAH.” left out\nSAH was modeled using the anterior circulation single autologous blood injection method^25,33 with minor adjustments. Mice were anesthetized with ketamine (100 mg/kg) and xylazine (10 mg/kg) before removing hair from scalp and cleaning with serial betadine—saline washes. […]\n(§4) Middle cerebral artery diameter were measured as previously reported.^36,37 One week post-SAH, mice were deeply anesthetized with ketamine and xylazine before being serially perfused through the left ventricle with PBS (5 mL), 4% PFA (15 mL), and 20% India ink dissolved in 5% gelatin. […] Brains were imaged and analyzed by an observer blinded to group assignment. The narrowest diameter within the first 2000 μm of the middle cerebral artery (MCA) after the terminal interior carotid artery bifurcation (M1 segment) was measured to assess vasospasm. […]"}, "[5]": {"tested_on": "eNOS", "test": "Western blot of total eNOS and p-eNOS (Ser1179) in brain after SAH", "procedure": "as §1\nSAH was modeled using the anterior circulation single autologous blood injection method^25,33 with minor adjustments. Mice were anesthetized with ketamine (100 mg/kg) and xylazine (10 mg/kg) before removing hair from scalp and cleaning with serial betadine—saline washes. The tail was also prepped from the base extending 1 cm distally. Mice were then fixed into a stereotaxic frame and body temperature maintained at 37° C. The scalp was incised along the sagittal suture from bregma to the nasal bone. The skin was reflected and a burr hole was drilled 5.0 mm rostral of bregma and 0.5 mm right laterally to avoid puncturing dural venous sinuses. […] 50 μL of blood was drawn into a Hamilton syringe (Hamilton, Reno, Nevada) and passed through the cranial burr hole at an angle of 30° caudally until contact with the skull base (approximately 7.2 mm). The syringe was left in place for 30 seconds to allow for tissue accommodation before blood was manually injected at a rate of 10 μL/minute. After blood injection was complete, the syringe was left in place for an additional 3 minutes and then retracted slowly at a rate of 10 mm/minute. Sham surgery was the identical procedure and timing including placement of the stereotactic needle but without blood injection. After the needle and syringe were removed, the burr hole was covered and skin flap was sutured with 5-0 ethilon suture.\nAt 24 hours or 7 days post-SAH, mice were deeply anesthetized and perfused with 10 mL of ice-cold PBS. Brains were harvested from the skull and placed into a cold brain matrix (Harvard Apparatus, Holliston, Massachusetts). The olfactory lobe was removed, and brains were cut in half along the mid-sagittal plane. The right hemisphere was cut again 2 mm caudally from the rostral edge and the pieces of tissue were snap frozen in liquid N2. Once all tissue samples were collected, brains were homogenized with a Dounce homogenizer and incubated in radioimmunoprecipitation assay (RIPA) buffer at 4° C. for 90 minutes with constant agitation. Samples were centrifuged, supernatant collected, and protein quantified via Bradford assay. Samples were then frozen at −20° C. or used immediately. 30 μg of total protein was separated electrophoretically through a 4-15% tris-glycine gel at 90V for 60 minutes and transferred onto nitrocellulose membranes with 0.45 μm pore size. Membranes were blocked with 5% skim milk in TBST (5% BSA for phospho-eNOS blots) for 1 hours at room temperature and then probed with specified primary antibodies (Table 1) diluted in 5% skim milk (5% BSA for phospho-eNOS) overnight at 4° C. with constant agitation. […]"}, "[6]": {"tested_on": "eNOS^−/− mice, SAH model", "test": "MCA diameter (vasospasm) after SAH in eNOS knockout mice", "conditions": "one week post-SAH", "source_text": "All animal experiments were approved by IACUC (Institutional Animal Care and Use Committee) and performed in accordance with ARRIVE (Animal Research: Reporting of In Vivo Experiments) guidelines. All animals were 12-15-week-old females and were housed in pathogen-free housing with ad libitum food and water and 12-h light/dark cycling. Wild-type C57B1/6 mice were received from Charles River Labs (Wilmington, Mass.) and eNOS knockout mice were obtained from The Jackson Laboratory (Bar Harbor, Maine). eNOS knockout breeding pairs were genotyped prior to breeding and F1 progeny used for all experiments. The following primers were used for genotyping: eNOS knockout (Nos3^−/−): F-5′-[…]-3′, R-5′-[…]-3′. All animals underwent twice daily monitoring from institutional animal care services staff and/or investigators. […]\nas §4"}, "[7]": {"test": "Quantitative serum assays for common markers of liver toxicity"}}}
{"substance": "adropin (CHSRSADVDSLSESSPNSSPGPCPEKAPPPQKPSHEGSYLLQP) [Synthetic adropin^34-76 peptide from Bachem]", "values": [{"measurement": "occludin expression (immunoblot)", "setting": "[1]", "result": "preserved the expression of occludin"}, {"measurement": "cleaved MMP9 levels (immunoblot)", "setting": "[2]", "result": "an effect abolished by adropin treatment"}, {"measurement": "brain water content (cerebral edema)", "setting": "[3]", "result": "this effect was blunted by adropin treatment"}, {"measurement": "ipsilateral MCA diameter (cerebral vasospasm)", "setting": "[4]; seven days post-SAH, treatment started 15 minutes post-SAH", "result": "adropin-treatment reversed this phenotype"}, {"measurement": "cerebral vasospasm (MCA diameter)", "setting": "[4]; treatment initiated at 24 hours post-SAH", "result": "strong trend for reduced cerebral vasospasm"}, {"measurement": "phospho-eNOS levels", "setting": "[5]; 7 day post-SAH", "result": "adropin treatment increase phospho-eNOS levels"}, {"measurement": "total eNOS", "setting": "[5]; 7 day post-SAH", "result": "slightly increased in both SAH groups; however, neither reached statistical significance"}, {"measurement": "Phospho-eNOS/eNOS ratio", "setting": "[5]; 7 day post-SAH, p=0.08 vs SAH+vehicle, p=0.08 vs sham+vehicle", "result": "trended higher with adropin treatment"}, {"measurement": "p-eNOS/total eNOS ratio", "setting": "[5]; one day post-SAH", "result": "no change in p-eNOS/total eNOS ratios between any groups"}, {"measurement": "eNOS phosphorylation (Ser1179)", "setting": "[5]; one day post-SAH, vs SAH+vehicle", "result": "increased eNOS phosphorylation one day post-SAH"}, {"measurement": "vasospasm (MCA diameter)", "setting": "[6]", "result": "adropin did not prevent vasospasm"}, {"measurement": "serum concentration of alanine aminotransferase (ALT)", "setting": "[7]; I.P. injection of adropin", "result": "did not cause elevations"}, {"measurement": "serum concentration of aspartate aminotransferase (AST)", "setting": "[7]; I.P. injection of adropin", "result": "did not cause elevations"}, {"measurement": "serum concentration of fasting glucose", "setting": "[7]; I.P. injection of adropin", "result": "did not cause elevations"}, {"measurement": "serum concentration of total bilirubin", "setting": "[7]; I.P. injection of adropin", "result": "did not cause elevations"}, {"measurement": "common markers of liver toxicity", "setting": "[7]; adropin vs vehicle", "result": "adropin had no effect compared to vehicle treatment"}]}
